Results taken from patent publication US11077128B2, “Selective inhibitors of Alpha2-containing isoforms of Na,K-ATPase and use thereof for reduction of intraocular pressure” (Yeda Research and Development Co. Ltd., priority 2015, dated 2021).

Legend:
[1] = tested on: human Na,K-ATPase α2β3FXYD1; test: biochemical; format: biochemical
[2] = biological target: human Na,K-ATPase α2β1FXYD1 (Homo sapiens, UniProt P50993); test: biochemical; format: biochemical
IOP in rabbits [3] = format: in vivo, New Zealand white rabbits; conditions: one drop topically prior to 4AP, IOP over 5 hours
IOP in rabbits [4] = test: Lowering of basal IOP in rabbits, topical; format: in vivo, New Zealand white rabbits; conditions: for effect on lowering the basal IOP: one drop of 1 mM solution, other eye PBS
[5] = biological target: human Na,K-ATPase α2β3FXYD1 (Homo sapiens (Human), UniProt P50993); test: biochemical; format: biochemical; conditions: read-out: apparent vanadate affinity (Ki vanadate) α2β3

CC1CN(Cc2ccccc2)CCC(O[C@@H]2C(C)O[C@@H](OC3C(C)OC(O[C@H]4CC[C@@]5(C)C(CCC6C5CC(O)[C@]5(C)[C@@H](C7=CC(=O)OC7)CC[C@]65O)C4)C[C@@H]3O)C[C@@H]2O)O1 (stereo in doubt) [DBz, 4-((3S,5R,8R,9S,10S,12R,13S,14S,17R)-3-(((2S,4S,5R,6R)-5-(((2S,4S,5S,6R)-5-((4-benzyl-2-methyl-1,4-oxazepan-7-yl)oxy)-4-hydroxy-6-methyltetrahydro-2H-pyran-2-yl)oxy)-4-hydroxy-6-methyltetrahydro-2H-pyran-2-yl)oxy)-12,14-dihydroxy-10,13-dimethylhexadecahydro-1H-cyclopenta[a]phenanthren-17-yl)furan-2(5H)-one]
Selectivity Ki ratio α1β1/α2β3 [1]: 10-12 | Selectivity Ki ratio α1β1/α2β1 [2]: 5.7

CC1CN(CCS(N)(=O)=O)CCC(O[C@@H]2C(C)O[C@@H](OC3C(C)OC(O[C@H]4CC[C@@]5(C)C(CCC6C5CC(O)[C@]5(C)[C@@H](C7=CC(=O)OC7)CC[C@]65O)C4)C[C@@H]3O)C[C@@H]2O)O1 (stereo in doubt) [DESA, 2-(7-(((2R,3S,4S,6S)-6-(((2R,3R,4S,6S)-6-(((3S,5R,8R,9S,10S,12R,13S,14S,17R)-12,14-dihydroxy-10,13-dimethyl-17-(5-oxo-2,5-dihydrofuran-3-yl)hexadecahydro-1H-cyclopenta[a]phenanthren-3-yl)oxy)-4-hydroxy-2-methyltetrahydro-2H-pyran-3-yl)oxy)-4-hydroxy-2-methyltetrahydro-2H-pyran-3-yl)oxy)-2-methyl-1,4-oxazepan-4-yl)ethanesulfonamide]
Selectivity Ki ratio α1β1/α2β3 [1]: 15 | Selectivity Ki ratio α1β1/α2β1 [2]: 7.7

CC1CN(CC2CC(C)(C)C2)CCC(O[C@@H]2C(C)O[C@@H](OC3C(C)OC(O[C@H]4CC[C@@]5(C)C(CCC6C5CC(O)[C@]5(C)[C@@H](C7=CC(=O)OC7)CC[C@]65O)C4)C[C@@H]3O)C[C@@H]2O)O1 (stereo in doubt) [DMDMcB, 4-((3S,5R,8R,9S,10S,12R,13S,14S,17R)-3-(((2S,4S,5R,6R)-5-(((2S,4S,5 S,6R)-5-((4-((3,3-dimethylcyclobutyl)methyl)-2-methyl-1,4-oxazepan-7-yl)oxy)-4-hydroxy-6-methyltetrahydro-2H-pyran-2-yl)oxy)-4-hydroxy-6-methyltetrahydro-2H-pyran-2-yl)oxy)-12,14-dihydroxy-10,13-dimethylhexadecahydro-1H-cyclopenta[a]phenanthren-17-yl)furan-2(5H)-one]
Selectivity Ki ratio α1β1/α2β3 [1]: 10-12

CC1CN(CC2CC2)CCC(O[C@@H]2C(C)O[C@@H](O[C@@H]3C(C)O[C@@H](O[C@H]4CC[C@@]5(C)C(CCC6C5CC(O)[C@]5(C)[C@@H](C7=CC(=O)OC7)CC[C@]65O)C4)C[C@@H]3O)C[C@@H]2O)O1 (stereo in doubt) [DMcP, 4-((3S,5R,8R,9S,10S,12R,13S,14S,17R)-3-(((2R,4S,5S,6R)-5-(((2S,4S,5S,6R)-5-((4-(cyclopropylmethyl)-2-methyl-1,4-oxazepan-7-yl)oxy)-4-hydroxy-6-methyltetrahydro-2H-pyran-2-yl)oxy)-4-hydroxy-6-methyltetrahydro-2H-pyran-2-yl)oxy)-12,14-dihydroxy-10,13-dimethylhexadecahydro-1H-cyclopenta[a]phenanthren-17-yl)furan-2(5H)-one]
Selectivity Ki ratio α1β1/α2β3 [1]: 22 | concentration that prevents the rise of the 4AP-induced IOP (IOP in rabbits [3]): 0.01 mM | Selectivity Ki ratio α1β1/α2β1 [2]: 5.2

CC1CN(C2CCC2)CCC(O[C@@H]2C(C)O[C@@H](O[C@@H]3C(C)O[C@@H](O[C@H]4CC[C@@]5(C)C(CCC6C5CC(O)[C@]5(C)[C@@H](C7=CC(=O)OC7)CC[C@]65O)C4)C[C@@H]3O)C[C@@H]2O)O1 (stereo in doubt) [DcB, 4-((3S,5R,8R,9S,10S,12R,13S,14S,17R)-3-(((2R,4S,5S,6R)-5-(((2S,4S,5S,6R)-5-((4-cyclobutyl-2-methyl-1,4-oxazepan-7-yl)oxy)-4-hydroxy-6-methyltetrahydro-2H-pyran-2-yl)oxy)-4-hydroxy-6-methyltetrahydro-2H-pyran-2-yl)oxy)-12,14-dihydroxy-10,13-dimethylhexadecahydro-1H-cyclopenta[a]phenanthren-17-yl)furan-2(5H)-one]
reduction of basal IOP at higher concentration (IOP in rabbits [4]; 2 mM): reduces the IOP similarly to 1 mM DcB | Selectivity Ki ratio α1β1/α2β3 [1]: 33 | concentration that prevents the rise of the 4AP-induced IOP (IOP in rabbits [3]): 0.01 mM

CC1CN(C2CCCCC2)CCC(O[C@@H]2C(C)O[C@@H](OC3C(C)OC(O[C@H]4CC[C@@]5(C)C(CCC6C5CC(O)[C@]5(C)[C@@H](C7=CC(=O)OC7)CC[C@]65O)C4)C[C@@H]3O)C[C@@H]2O)O1 (stereo in doubt) [DcH, 4-((3S,5R,8R,9S,10S,12R,13S,14S,17R)-3-(((2S,4S,5R,6R)-5-(((2S,4S,5S,6R)-5-((4-cyclohexyl-2-methyl-1,4-oxazepan-7-yl)oxy)-4-hydroxy-6-methyltetrahydro-2H-pyran-2-yl)oxy)-4-hydroxy-6-methyltetrahydro-2H-pyran-2-yl)oxy)-12,14-dihydroxy-10,13-dimethylhexadecahydro-1H-cyclopenta[a]phenanthren-17-yl)furan-2(5H)-one]
Selectivity Ki ratio α1β1/α2β3 [1]: 10-12

CC1CN(C2CCCC2)CCC(O[C@@H]2C(C)O[C@@H](OC3C(C)OC(O[C@H]4CC[C@@]5(C)C(CCC6C5CC(O)[C@]5(C)[C@@H](C7=CC(=O)OC7)CC[C@]65O)C4)C[C@@H]3O)C[C@@H]2O)O1 (stereo in doubt) [DcPe, 4-((3S,5R,8R,9S,10S,12R,13S,14S,17R)-3-(((2S,4S,5R,6R)-5-(((2S,4S,5S,6R)-5-((4-cyclopentyl-2-methyl-1,4-oxazepan-7-yl)oxy)-4-hydroxy-6-methyltetrahydro-2H-pyran-2-yl)oxy)-4-hydroxy-6-methyltetrahydro-2H-pyran-2-yl)oxy)-12,14-dihydroxy-10,13-dimethylhexadecahydro-1H-cyclopenta[a]phenanthren-17-yl)furan-2(5H)-one]
Selectivity Ki ratio α1β1/α2β3 [1]: 5

CC1CN(CC(F)(F)F)CCC(O[C@@H]2[C@H](C)O[C@@H](O[C@@H]3[C@H](C)O[C@@H](O[C@H]4CC[C@@]5(C)C(CCC6C5C[C@H](O)[C@]5(C)[C@@H](C7=CC(=O)OC7)CC[C@]65O)C4)C[C@@H]3O)C[C@@H]2O)O1 (stereo partly shown) [DCF3]
Selectivity Ki ratio α1β1/α2β3 [1]: 9.6 | Selectivity Ki ratio α1β1/α2β1 [2]: 4.1

CCN1CCC(O[C@@H]2[C@H](C)O[C@@H](O[C@@H]3[C@H](C)O[C@@H](O[C@H]4CC[C@@]5(C)C(CCC6C5C[C@H](O)[C@]5(C)[C@@H](C7=CC(=O)OC7)CC[C@]65O)C4)C[C@@H]3O)C[C@@H]2O)OC(C)C1 (stereo partly shown) [DEt]
Selectivity Ki ratio α1β1/α2β3 [1]: 9.5 | Selectivity Ki ratio α1β1/α2β1 [2]: 5.9

CC1CN(CC(N)=O)CCC(OC2C(O)CC(OC3C(O)CC(OC4CCC5(C)C(CCC6C5CC(O)C5(C)C(C7=CC(=O)OC7)CCC65O)C4)OC3C)OC2C)O1 (stereo not shown) [DGlyN, reference compound]
effect on lowering the basal IOP (IOP in rabbits [4]): coincides with other observations

CC1CN(C)CCC(O[C@@H]2[C@H](C)O[C@@H](O[C@@H]3[C@H](C)O[C@@H](O[C@H]4CC[C@@]5(C)C(CCC6C5C[C@H](O)[C@]5(C)[C@@H](C7=CC(=O)OC7)CC[C@]65O)C4)C[C@@H]3O)C[C@@H]2O)O1 (stereo partly shown) [DMe]
effect on lowering the basal IOP (IOP in rabbits [4]): coincides with other observations | Selectivity Ki ratio α1β1/α2β3 [1]: 9.5 | Selectivity Ki ratio α1β1/α2β1 [2]: 6.7

CCCN1CCC(O[C@@H]2[C@H](C)O[C@@H](O[C@@H]3[C@H](C)O[C@@H](O[C@H]4CC[C@@]5(C)C(CCC6C5C[C@H](O)[C@]5(C)[C@@H](C7=CC(=O)OC7)CC[C@]65O)C4)C[C@@H]3O)C[C@@H]2O)OC(C)C1 (stereo partly shown) [DP]
Selectivity Ki ratio α1β1/α2β3 [1]: 8.8 | Selectivity Ki ratio α1β1/α2β1 [2]: 4.8

CC1CN(C[Si](C)(C)C)CCC(OC2C(O)CC(OC3C(O)CC(OC4CCC5(C)C(CCC6C5CC(O)C5(C)C(C7=CC(=O)OC7)CCC65O)C4)OC3C)OC2C)O1 (stereo not shown) [DTMS]
Selectivity Ki ratio α1β1/α2β3 [1]: 6.5 | Selectivity Ki ratio α1β1/α2β1 [2]: 3

C[C@H]1O[C@@H](O[C@H]2[C@@H](O)C[C@H](O[C@H]3[C@@H](O)C[C@H](O[C@H]4CC[C@@]5(C)[C@H](CC[C@@H]6[C@@H]5C[C@@H](O)[C@]5(C)[C@@H](C7=CC(=O)OC7)CC[C@]65O)C4)O[C@@H]3C)O[C@@H]2C)C[C@H](O)[C@@H]1O [Digoxin, digoxin, reference compound]
effect on lowering the basal IOP (IOP in rabbits [4]): neither digoxin nor DiB had a significant effect

CC1CN(C(C)(C)C)CCC(O[C@@H]2[C@H](C)O[C@@H](O[C@@H]3[C@H](C)O[C@@H](O[C@H]4CC[C@@]5(C)C(CCC6C5C[C@H](O)[C@]5(C)[C@@H](C7=CC(=O)OC7)CC[C@]65O)C4)C[C@@H]3O)C[C@@H]2O)O1 (stereo partly shown) [DtB]
Selectivity Ki ratio α1β1/α2β3 [1]: 8.2 | Selectivity Ki ratio α1β1/α2β1 [2]: 6.2

CC(=O)O[C@H]1C[C@H](O[C@H]2[C@@H](OC(C)=O)C[C@H](O[C@H]3CC[C@@]4(C)[C@H](CC[C@@H]5[C@@H]4C[C@@H](OC(C)=O)[C@]4(C)[C@@H](C6=CC(=O)OC6)CC[C@]54O)C3)O[C@@H]2C)O[C@H](C)[C@H]1OC1CCN(C2CCC2)CC(C)O1 (stereo partly drawn) [TrisAcDcB, (2R,3R,4S,6R)-6-(((3S,5R,8R,9S,10S,12R,13S,14S,17R)-12-acetoxy-14-hydroxy-10,13-dimethyl-17-(5-oxo-2,5-dihydrofuran-3-yl)hexadecahydro-1H-cyclopenta[a]phenanthren-3-yl)oxy)-3-(((2S,4S,5R,6R)-4-acetoxy-5-((4-cyclobutyl-2-methyl-1,4-oxazepan-7-yl)oxy)-6-methyltetrahydro-2H-pyran-2-yl)oxy)-2-methyltetrahydro-2H-pyran-4-yl acetate]
time to minimum IOP (IOP in rabbits [4]; 0.05-0.2 mM): 5 to 6 h | minimum IOP (IOP in rabbits [4]; dropped from 15-16 mmHg, 0.05-0.2 mM): 12 mmHg | effect on basal IOP in the first hours (lag) (IOP in rabbits [4]; one 30 μl drop, 0.05, 0.1, 0.2 mM): no effect was observed at the first four hours | time of return of IOP to the control level (IOP in rabbits [4]; prodrug, 0.05-0.2 mM): 12 h | maximal effect on IOP compared with parent DcB (IOP in rabbits [4]; rabbit, in vivo): essentially equal to that produced by the parent DcB

[O]=[V]([OH])([OH])[OH] [vanadate, reference compound]
Ki [5]: 19 µM
